Assay results from PMC11882969 (Nature Communications, 2025).
“And” between values parts separate entries of the source, which are not always exact repeats. Equal entries are not always repeated. Where two headings read alike, the source gives them in different places.

Target: hCB2 (Homo sapiens, UniProt P34972)
Test: bioSensAll ebBRET signaling profiling, hCB2
Assay type: cell-based
Design: host or cells: HEK293SL cells, transient PEI transfection
Conditions: for G15 hCB2 / Gq hCB2 / Gs hCB2 / G13 hCB2: raw signal; for EC50: read-out: EC50 [95% CI]; for Emax: normalized to CP-55,940

hCB2, sequence (P34972 whole entry): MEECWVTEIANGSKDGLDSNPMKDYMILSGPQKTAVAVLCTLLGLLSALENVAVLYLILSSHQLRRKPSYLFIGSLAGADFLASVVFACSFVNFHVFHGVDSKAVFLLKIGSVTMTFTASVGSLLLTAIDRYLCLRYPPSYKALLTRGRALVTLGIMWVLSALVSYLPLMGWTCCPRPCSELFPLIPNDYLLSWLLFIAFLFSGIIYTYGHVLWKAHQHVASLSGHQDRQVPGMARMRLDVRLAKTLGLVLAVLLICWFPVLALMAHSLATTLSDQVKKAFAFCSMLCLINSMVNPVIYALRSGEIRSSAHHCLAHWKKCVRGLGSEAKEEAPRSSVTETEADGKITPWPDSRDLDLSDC

**Q.** With `COC(=O)[C@@](C)(NC(=O)c1cc(C)n(-c2cccc(C(F)(F)F)c2)n1)c1cccs1` [‘1350] as the compound, how does the “G15 hCB2” value (Log [Compound] (M) -5.05788) read?
**A.** Its value is 909.

**Q.** And the “Gq hCB2” value (Log [Compound] (M) -5.05788)?
**A.** Its value is 1907.

**Q.** What about the “Gs hCB2” value (Log [Compound] (M) -5.05788) of the same compound?
**A.** The value was 9135.

**Q.** And the “G13 hCB2” value (Log [Compound] (M) -5.47381)?
**A.** Its value is 332.

**Q.** What about the “G15 hCB2” value (Log [Compound] (M) -5.47381) of the same compound?
**A.** Its value is 938.

**Q.** And the “Gq hCB2” value (Log [Compound] (M) -5.47381)?
**A.** The value was 1876.

**Q.** What about the “Gs hCB2” value (Log [Compound] (M) -5.47381) of the same compound?
**A.** The value was 8949.

**Q.** And the “G13 hCB2” value (Log [Compound] (M) -5.89285)?
**A.** Its value is 339.

**Q.** And the “G15 hCB2” value (Log [Compound] (M) -5.89285)?
**A.** Its value is 882.

**Q.** What about the “Gq hCB2” value (Log [Compound] (M) -5.89285) of the same compound?
**A.** Its value is 1888.

**Q.** What about the “Gs hCB2” value (Log [Compound] (M) -5.89285) of the same compound?
**A.** The value was 8825.

**Q.** What about the “G13 hCB2” value (Log [Compound] (M) -6.31878) of the same compound?
**A.** Its value is 340.

**Q.** What about the “G15 hCB2” value (Log [Compound] (M) -6.31878) of the same compound?
**A.** The value was 867.

**Q.** And the “Gq hCB2” value (Log [Compound] (M) -6.31878)?
**A.** The value was 1817.

**Q.** What about the “Gs hCB2” value (Log [Compound] (M) -6.31878) of the same compound?
**A.** Its value is 8693.

**Q.** What about the “G13 hCB2” value (Log [Compound] (M) -6.72585) of the same compound?
**A.** The value was 337.

**Q.** And the “G15 hCB2” value (Log [Compound] (M) -6.72585)?
**A.** Its value is 945.

**Q.** And the “Gq hCB2” value (Log [Compound] (M) -6.72585)?
**A.** Its value is 1883.

**Q.** What about the “Gs hCB2” value (Log [Compound] (M) -6.72585) of the same compound?
**A.** The value was 8781.

**Q.** What about the “G13 hCB2” value (Log [Compound] (M) -7.14267) of the same compound?
**A.** Its value is 379.

**Q.** What about the “G15 hCB2” value (Log [Compound] (M) -7.14267) of the same compound?
**A.** Its value is 858.

**Q.** What about the “Gq hCB2” value (Log [Compound] (M) -7.14267) of the same compound?
**A.** Its value is 1709.

**Q.** And the “Gs hCB2” value (Log [Compound] (M) -7.14267)?
**A.** Its value is 8728.

**Q.** And the “G13 hCB2” value (Log [Compound] (M) -7.55284)?
**A.** The value was 353.

**Q.** And the “G15 hCB2” value (Log [Compound] (M) -7.55284)?
**A.** The value was 904.

**Q.** What about the “Gq hCB2” value (Log [Compound] (M) -7.55284) of the same compound?
**A.** Its value is 1791.

**Q.** And the “Gs hCB2” value (Log [Compound] (M) -7.55284)?
**A.** Its value is 8935.

**Q.** What about the “G13 hCB2” value (Log [Compound] (M) -8) of the same compound?
**A.** Its value is 375.

**Q.** And the “G15 hCB2” value (Log [Compound] (M) -8)?
**A.** The value was 912.

**Q.** What about the “Gq hCB2” value (Log [Compound] (M) -8) of the same compound?
**A.** The value was 1812.

**Q.** What about the “Gs hCB2” value (Log [Compound] (M) -8) of the same compound?
**A.** Its value is 8658.

**Q.** What about the “G13 hCB2” value (Log [Compound] (M) -8.22186) of the same compound?
**A.** Its value is 364.

**Q.** What about the “G15 hCB2” value (Log [Compound] (M) -8.22186) of the same compound?
**A.** Its value is 883.

**Q.** What about the “Gq hCB2” value (Log [Compound] (M) -8.22186) of the same compound?
**A.** Its value is 1883.

**Q.** What about the “Gs hCB2” value (Log [Compound] (M) -8.22186) of the same compound?
**A.** Its value is 9640.

**Q.** And the “G13 hCB2” value (Log [Compound] (M) -8.39794)?
**A.** The value was 287.

**Q.** What about the “G15 hCB2” value (Log [Compound] (M) -8.39794) of the same compound?
**A.** The value was 753.

**Q.** What about the “Gq hCB2” value (Log [Compound] (M) -8.39794) of the same compound?
**A.** Its value is 1844.

**Q.** What about the “Gs hCB2” value (Log [Compound] (M) -8.39794) of the same compound?
**A.** Its value is 8340.

**Q.** And the “G13 hCB2” value (Log [Compound] (M) -8.68787)?
**A.** The value was 322.

**Q.** What about the “G15 hCB2” value (Log [Compound] (M) -8.68787) of the same compound?
**A.** Its value is 851.

**Q.** What about the “Gq hCB2” value (Log [Compound] (M) -8.68787) of the same compound?
**A.** The value was 1882.

**Q.** What about the “Gs hCB2” value (Log [Compound] (M) -8.68787) of the same compound?
**A.** Its value is 8911.

**Q.** And the “G13 hCB2” value (Log [Compound] (M) -9.15521)?
**A.** Its value is 356.

**Q.** And the “G15 hCB2” value (Log [Compound] (M) -9.15521)?
**A.** The value was 841.

**Q.** What about the “Gq hCB2” value (Log [Compound] (M) -9.15521) of the same compound?
**A.** Its value is 1859.

**Q.** What about the “Gs hCB2” value (Log [Compound] (M) -9.15521) of the same compound?
**A.** The value was 8948.

**Q.** What about the “G13 hCB2” value (Log [Compound] (M) -9.61989) of the same compound?
**A.** The value was 303.

**Q.** What about the “G15 hCB2” value (Log [Compound] (M) -9.61989) of the same compound?
**A.** The value was 888.

**Q.** And the “Gq hCB2” value (Log [Compound] (M) -9.61989)?
**A.** The value was 1906.

**Q.** What about the “Gs hCB2” value (Log [Compound] (M) -9.61989) of the same compound?
**A.** The value was 8984.

**Q.** What about the “G13 hCB2” value (Log [Compound] (M) -10.0969) of the same compound?
**A.** The value was 348.

**Q.** And the “G15 hCB2” value (Log [Compound] (M) -10.0969)?
**A.** Its value is 956.

**Q.** What about the “Gq hCB2” value (Log [Compound] (M) -10.0969) of the same compound?
**A.** Its value is 1853.

**Q.** And the “Gs hCB2” value (Log [Compound] (M) -10.0969)?
**A.** Its value is 9066.

**Q.** What about the “G13 hCB2” value (Log [Compound] (M) -10.5529) of the same compound?
**A.** Its value is 333.

**Q.** And the “G15 hCB2” value (Log [Compound] (M) -10.5529)?
**A.** Its value is 902.

**Q.** What about the “Gq hCB2” value (Log [Compound] (M) -10.5529) of the same compound?
**A.** Its value is 1805.

**Q.** What about the “Gs hCB2” value (Log [Compound] (M) -10.5529) of the same compound?
**A.** The value was 9374.

**Q.** What about the “G13 hCB2” value (Log [Compound] (M) -11.0177) of the same compound?
**A.** Its value is 340.

**Q.** What about the “G15 hCB2” value (Log [Compound] (M) -11.0177) of the same compound?
**A.** The value was 939.

**Q.** What about the “Gq hCB2” value (Log [Compound] (M) -11.0177) of the same compound?
**A.** The value was 1690.

**Q.** What about the “Gs hCB2” value (Log [Compound] (M) -11.0177) of the same compound?
**A.** The value was 9100.

**Q.** What about the “G13 hCB2” value (Log [Compound] (M) -11.4949) of the same compound?
**A.** Its value is 323.

**Q.** What about the “G15 hCB2” value (Log [Compound] (M) -11.4949) of the same compound?
**A.** The value was 868.

**Q.** What about the “Gq hCB2” value (Log [Compound] (M) -11.4949) of the same compound?
**A.** The value was 1776.

**Q.** What about the “Gs hCB2” value (Log [Compound] (M) -11.4949) of the same compound?
**A.** The value was 8459.

**Q.** And the “G13 hCB2” value (Log [Compound] (M) -11.9208)?
**A.** The value was 343.

**Q.** What about the “G15 hCB2” value (Log [Compound] (M) -11.9208) of the same compound?
**A.** Its value is 862.

**Q.** What about the “Gq hCB2” value (Log [Compound] (M) -11.9208) of the same compound?
**A.** The value was 1776.

**Q.** What about the “Gs hCB2” value (Log [Compound] (M) -11.9208) of the same compound?
**A.** Its value is 9036.

**Q.** What about the “G13 hCB2” value (Log [Compound] (M) -12.3979) of the same compound?
**A.** Its value is 327.

**Q.** And the “G15 hCB2” value (Log [Compound] (M) -12.3979)?
**A.** Its value is 871.

**Q.** What about the “Gq hCB2” value (Log [Compound] (M) -12.3979) of the same compound?
**A.** The value was 1850.

**Q.** And the “Gs hCB2” value (Log [Compound] (M) -12.3979)?
**A.** Its value is 8912.

**Q.** And the “G13 hCB2” value (Log [Compound] (M) -12.8861)?
**A.** Its value is 293.

**Q.** What about the “G15 hCB2” value (Log [Compound] (M) -12.8861) of the same compound?
**A.** The value was 841.

**Q.** What about the “Gq hCB2” value (Log [Compound] (M) -12.8861) of the same compound?
**A.** The value was 1768.

**Q.** And the “Gs hCB2” value (Log [Compound] (M) -12.8861)?
**A.** The value was 8754.

**Q.** And the “G13 hCB2” value (Log [Compound] (M) -13)?
**A.** The value was 352 and 368.

**Q.** And the “G15 hCB2” value (Log [Compound] (M) -13)?
**A.** The value was 772 and 852.

**Q.** And the “Gq hCB2” value (Log [Compound] (M) -13)?
**A.** The value was 1940 and 1790.

**Q.** What about the “Gs hCB2” value (Log [Compound] (M) -13) of the same compound?
**A.** The value was 8891 and 8980.

**Q.** And the EC50 (hCB2 Barr2 + GRK2)?
**A.** Its EC50 is 4.2 nM.

**Q.** What about the EC50 (hCB2 Gi2) of the same compound?
**A.** The EC50 was 1.6 nM.

**Q.** And the EC50 (hCB2 GoB)?
**A.** Its EC50 is 2.6 nM.

**Q.** And the EC50 (hCB2 Gz)?
**A.** The EC50 was 2.6 nM.

**Q.** And the Emax (read-out: Emax [95% CI], hCB2 Barr2 + GRK2)?
**A.** The Emax was 30%.

**Q.** And the Emax (read-out: Emax [95% CI], hCB2 Gi1)?
**A.** Its Emax is 74%.

**Q.** And the Emax (read-out: Emax [95% CI], hCB2 Gi2)?
**A.** The Emax was 61%.

**Q.** And the Emax (read-out: Emax [95% CI], hCB2 GoB)?
**A.** Its Emax is 59%.

**Q.** And the Emax (read-out: Emax [95% CI], hCB2 Gz)?
**A.** The Emax was 52%.
